In the test the test system is BDF1 mice, P388 leukemia ip, median survival T/C. Kind of test: NCI In Vivo Anticancer Drug Screen. Data for tumor model P388 Leukemia (intraperitoneal) in B6D2F1 (BDF1) mice. Particulars: endpoint: median survival time, higher = longer survival. The method, boiled down: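 Steps: implant the tumour, treat one group with compound and another with vehicle, record survival, then divide treated by control.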

[1] abbreviates: dose: 100.0 mg/kg/injection, schedule: Q04DX003 (ip), vehicle: saline with Tween-80.
The mark [2] stands for this setting: dose: 200.0 mg/kg/injection, schedule: Q04DX003 (ip), vehicle: saline with Tween-80.
The mark [3] stands for this setting: dose: 400.0 mg/kg/injection, schedule: Q04DX003 (ip), vehicle: saline with Tween-80.
[4] abbreviates: dose: 50.0 mg/kg/injection, schedule: Q04DX003 (ip), vehicle: saline with Tween-80.
Where [5] appears, read: dose: 100.0 mg/kg/injection, schedule: Q04DX003 (ip), vehicle: other.
Where [6] appears, read: dose: 200.0 mg/kg/injection, schedule: Q04DX003 (ip), vehicle: other.
[7] abbreviates: dose: 400.0 mg/kg/injection, schedule: Q04DX003 (ip), vehicle: other.

“And” between values parts separate entries of the source, which are not always exact repeats. Identical values can stand only once. Toxic doses and inconclusive results are not listed.

In the case of `CCCCCCCCCCCCCCCCCCCC/C=C/C1CC(=O)OC1=O` (configuration not stated), the T/C by setting is: (dose: 75.0 mg/kg/injection, schedule: Q01DX009 (ip), vehicle: Klucel (hydroxypropylcellulose) (HPC)) 95 % of control; (dose: 100.0 mg/kg/injection, schedule: Q04DX003 (ip), vehicle: Klucel (hydroxypropylcellulose) (HPC)) 100 % of control; (dose: 150.0 mg/kg/injection, schedule: Q01DX009 (ip), vehicle: Klucel (hydroxypropylcellulose) (HPC)) 95 % of control; (dose: 200.0 mg/kg/injection, schedule: Q04DX003 (ip), vehicle: Klucel (hydroxypropylcellulose) (HPC)) 87 % of control; (dose: 300.0 mg/kg/injection, schedule: Q01DX009 (ip), vehicle: Klucel (hydroxypropylcellulose) (HPC)) 86 % of control; (dose: 400.0 mg/kg/injection, schedule: Q04DX003 (ip), vehicle: Klucel (hydroxypropylcellulose) (HPC)) 87 % of control.

On to `CC(=O)Nc1cc2c(cc1[N+](=O)[O-])-c1ccc([N+](=O)[O-])cc1C2`, for which the T/C (dose: 6.25 mg/kg/injection, schedule: Q01DX009 (ip), vehicle: Klucel (hydroxypropylcellulose) (HPC)) is 89 % of control; the T/C (dose: 12.5 mg/kg/injection, schedule: Q01DX009 (ip), vehicle: Klucel (hydroxypropylcellulose) (HPC)) is 97 % of control; the T/C (dose: 25.0 mg/kg/injection, schedule: Q01DX009 (ip), vehicle: Klucel (hydroxypropylcellulose) (HPC)) was 89 % of control and 91 % of control.

With `Cc1ccccc1NC(=O)C1CCC(C)(C(=O)O)C1(C)C` (configuration not stated), the T/C under setting [1] is 90 % of control, the T/C under setting [2] is 100 % of control and the T/C under setting [3] is 90 % of control.

Consider `Cc1ccc(S(=O)(=O)N/N=C/C(O)C(O)C(O)CO)cc1` (configuration not stated), for which the T/C reads like this: (dose: 100.0 mg/kg/injection, schedule: Q01DX001 (ip), vehicle: saline) 110 % of control; (dose: 200.0 mg/kg/injection, schedule: Q01DX001 (ip), vehicle: saline) 105 % of control; (dose: 400.0 mg/kg/injection, schedule: Q01DX001 (ip), vehicle: saline) 120 % of control.

As to `O=c1cc(Cl)[nH]c(=O)[nH]1`, the T/C was 97 % of control under setting [4], 114 % of control under setting [1], 97 % of control under setting [2] and 97 % of control under setting [3].

Take `CC(CCc1cccc2ccccc12)(C(=O)O)C(=O)O`: the T/C (dose: 100.0 mg/kg/injection, schedule: Q04DX003 (ip), vehicle: saline sonified) was 100 % of control and the T/C (dose: 200.0 mg/kg/injection, schedule: Q04DX003 (ip), vehicle: saline sonified) was 91 % of control.

Regarding `Cc1ccc2c(Br)cc(Br)c(O)c2n1`, the T/C was 115 % of control (dose: 10.0 mg/kg/injection, schedule: Q01DX009 (ip), vehicle: Klucel (hydroxypropylcellulose) (HPC)); 115 % of control (dose: 20.0 mg/kg/injection, schedule: Q01DX009 (ip), vehicle: Klucel (hydroxypropylcellulose) (HPC)); 115 % of control (dose: 40.0 mg/kg/injection, schedule: Q01DX009 (ip), vehicle: Klucel (hydroxypropylcellulose) (HPC)); 100 % of control (dose: 100.0 mg/kg/injection, schedule: Q01DX009 (ip), vehicle: Klucel (hydroxypropylcellulose) (HPC)).

Regarding `CCN(CC)c1ccc(NC(=O)NC(C)C)cc1`, the T/C is 90 % of control under setting [4], 90 % of control under setting [1] and 86 % of control under setting [2].

Regarding `CCOc1ccccc1CC(=O)O`, the T/C under setting [1] is 100 % of control, the T/C under setting [2] was 100 % of control and the T/C under setting [3] is 104 % of control.

On to `COc1ccc(C(=O)CC(C(=O)O)c2ccc(OC)c(OC)c2)cc1OC` (configuration not stated), for which the T/C is 104 % of control (dose: 100.0 mg/kg/injection, schedule: Q01DX009 (ip), vehicle: saline with Tween-80); 104 % of control (dose: 200.0 mg/kg/injection, schedule: Q01DX009 (ip), vehicle: saline with Tween-80); 100 % of control (dose: 400.0 mg/kg/injection, schedule: Q01DX009 (ip), vehicle: saline with Tween-80).

With `O=C(O)/C=C/C(=O)Nc1cccc(Oc2ccc([N+](=O)[O-])cc2[N+](=O)[O-])c1`, the T/C is 118 % of control (dose: 100.0 mg/kg/injection, schedule: Q01DX009 (ip), vehicle: saline); 100 % of control under setting [5]; 122 % of control (dose: 200.0 mg/kg/injection, schedule: Q01DX009 (ip), vehicle: saline); 100 % of control under setting [6]; 91 % of control under setting [7].

On to `O=c1cc2cccccc-2cc1O`, for which the T/C runs as follows: (dose: 10.0 mg/kg/injection, schedule: Q01DX009 (ip), vehicle: saline with Tween-80) 104 % of control; (dose: 20.0 mg/kg/injection, schedule: Q01DX009 (ip), vehicle: saline with Tween-80) 113 % of control; (dose: 40.0 mg/kg/injection, schedule: Q01DX009 (ip), vehicle: saline with Tween-80) 113 % of control.

On to `COc1ccc(C2=NNc3n[nH]c(=S)n3N2)cc1OC`, for which the T/C under setting [1] is 100 % of control, the T/C under setting [2] is 100 % of control and the T/C under setting [3] was 91 % of control.

Consider `CC1=C(Cl)C(Cl)(Cl)C(=O)C(=O)C1(Cl)Cl`, for which the T/C runs as follows: (dose: 6.25 mg/kg/injection, schedule: Q01DX009 (ip), vehicle: other) 100 % of control; (dose: 12.5 mg/kg/injection, schedule: Q01DX009 (ip), vehicle: other) 109 % of control; (dose: 25.0 mg/kg/injection, schedule: Q01DX009 (ip), vehicle: other) 113 % of control.

With `Cc1cc(C)c(C(=O)CC(=O)c2cccnc2)c(C)c1`, the T/C is, setting by setting: (dose: 100.0 mg/kg/injection, schedule: Q01DX009 (ip), vehicle: other) 115 % of control; under setting [5], 100 % of control; (dose: 200.0 mg/kg/injection, schedule: Q01DX009 (ip), vehicle: other) 120 % of control; under setting [6], 100 % of control; (dose: 400.0 mg/kg/injection, schedule: Q01DX009 (ip), vehicle: other) 110 % of control; under setting [7], 100 % of control.

As to `CCN(CC)c1ccc([N+](=O)[O-])c2no[n+]([O-])c12`, the T/C by setting is: (dose: 35.0 mg/kg/injection, schedule: Q01DX009 (ip), vehicle: saline with Tween-80) 91 % of control; (dose: 70.0 mg/kg/injection, schedule: Q01DX009 (ip), vehicle: saline with Tween-80) 94 % of control.

In the case of `C#CC(O)C(CC)CCCC` (configuration not stated), the T/C under setting [1] was 100 % of control, the T/C under setting [2] is 100 % of control and the T/C under setting [3] is 100 % of control.

For the compound `COC1=C(N2CC2)C(=O)C(OC)=C(N2CC2)C1=O`, the T/C by setting is: (dose: 0.5 mg/kg/injection, schedule: Q01DX009 (ip), vehicle: Klucel (hydroxypropylcellulose) (HPC)) 217 % of control; (dose: 0.5 mg/kg/injection, schedule: Q01DX009 (ip), vehicle: saline) 162 % of control; (dose: 0.8 mg/kg/injection, schedule: Q04DX003 (ip), vehicle: saline with Tween-80) 170 % of control; (dose: 1.0 mg/kg/injection, schedule: Q01DX009 (ip), vehicle: Klucel (hydroxypropylcellulose) (HPC)) 234 % of control; (dose: 1.0 mg/kg/injection, schedule: Q01DX009 (ip), vehicle: saline with Tween-80) 179 % of control; (dose: 1.0 mg/kg/injection, schedule: Q01DX009 (ip), vehicle: saline) 201 % of control. Moreover, the T/C reads like this: (dose: 1.8 mg/kg/injection, schedule: Q04DX003 (ip), vehicle: saline with Tween-80) 154 % of control; (dose: 2.0 mg/kg/injection, schedule: Q01DX009 (ip), vehicle: Klucel (hydroxypropylcellulose) (HPC)) 285 % of control; (dose: 2.0 mg/kg/injection, schedule: Q01DX009 (ip), vehicle: saline with Tween-80) 91 % of control; (dose: 2.0 mg/kg/injection, schedule: Q01DX009 (ip), vehicle: saline) 252 % of control; (dose: 2.6 mg/kg/injection, schedule: Q04DX003 (ip), vehicle: saline with Tween-80) 173 % of control; (dose: 4.0 mg/kg/injection, schedule: Q01DX009 (ip), vehicle: Klucel (hydroxypropylcellulose) (HPC)) 326 % of control. Besides, the T/C runs as follows: (dose: 4.0 mg/kg/injection, schedule: Q01DX009 (ip), vehicle: saline) 92 % of control; (dose: 4.0 mg/kg/injection, schedule: Q04DX003 (ip), vehicle: saline with Tween-80) 165 % of control; (dose: 6.0 mg/kg/injection, schedule: Q04DX003 (ip), vehicle: saline with Tween-80) 200 % of control.

Take `O=C(Nc1ccc(Cl)c(C(F)(F)F)c1)Nc1ccc(Oc2ccc(Cl)cc2)cc1S(=O)(=O)O`: the T/C is 100 % of control (dose: 50.0 mg/kg/injection, schedule: Q04DX003 (ip), vehicle: saline); 95 % of control (dose: 100.0 mg/kg/injection, schedule: Q04DX003 (ip), vehicle: saline); 95 % of control (dose: 200.0 mg/kg/injection, schedule: Q04DX003 (ip), vehicle: saline).
